For data set [1], the system named is platelet Ca-activated protease. As to the kind of experiment: inhibition of platelet Ca-activated protease. Type of data set: biochemical. The following applies: final in-vitro conc. 1 mM. The source says: The following results were obtained for inhibition of platelet Ca-activated protease: […]
The conditions of data set [2]: in vivo, po; cited from earlier work.
For the next data set, the system named is Ca-activated protease. In words: in vitro inhibition of Ca-activated protease. The following applies: for % of Control (Ca-activated protease activity): in vitro, 100 ug; for % of Control (Ca-activated protease activity) after hydrolysis: 100ug, hydrolysis at 60° C., pH 2. Type of data set: biochemical. The source says:
It has been shown that in vitro carnitylleucylargininal inhibits Ca-activated protease as well as leupeptin, viz.

The conditions of data set [3]: active transport; cited from earlier work.
Data set [4] has as its system muscle Ca-activated protease. In words: in-vivo administration, inhibition of muscle Ca-activated protease. The following applies: for % Inhibition of muscle Ca-activated protease: 2 hours post IP injection. Set-up: species or system rats.

Square brackets hold non-standard residues; d marks the D form. Peptide text beside a SMILES is read from it. Cya = N[CH](CS(=O)(=O)O)C(=O)O

On to `N[C@@H](CS(=O)(=O)O)C(=O)O` [Cysteic acid (CDI treated), cysteic acid], for which, in data set [1], the “% Inhibition of platelet Ca-activated protease” value came out at 0%.
In the case of `C[N+](C)(C)C[C@H](N)CC(=O)[O-]` [aminocarnitine], in data set [2], the “toxicity when fed orally” value is recorded as “non-toxic”.
Regarding `C[N+](C)(C)CC(O)CC(=O)[O-]` (stereo not shown) [carnitine], in the data set with Ca-activated protease, the “% of Control (Ca-activated protease activity)” value worked out at 84%. In addition, the “concentration in cardiac and skeletal muscle relative to plasma” value in data set [3] is recorded as 50-100 times.
In the case of `CC(C)CC(NC(=O)C(N)CS(=O)(=O)O)C(=O)NC(C=O)CCCNC(=N)N` (stereo not drawn) [cysteicleucylargininal] (H-[Cya]-Leu-Arg-aldehyde; configuration not given here), the “% Inhibition of platelet Ca-activated protease” value in data set [1] amounted to 98%.
On the same count and under the same terms, for `CC(C)C[C@H](N)C(=O)N[C@H](C=O)CCCNC(=N)N` [leucylargininal, leucyl argininal] the value was 94%.
Consider `CC(=O)N[C@@H](CC(C)C)C(=O)N[C@@H](CC(C)C)C(=O)N[C@H](C=O)CCCNC(=N)N` [leupeptin], for which the “% of Control (Ca-activated protease activity)” value in the data set with Ca-activated protease is given as 7.9%. Also, in data set [4] (74 umoles), the “% Inhibition of muscle Ca-activated protease” value is 20%. Further, the “% Inhibition of platelet Ca-activated protease” value in data set [1] came to 98%.
Take “E-aminoadipic acid [E-aminoadipic acid (CDI treated)]”: in data set [1], the “% Inhibition of platelet Ca-activated protease” value turned out to be 0%.
For carnitylleucylargininal, in the data set with Ca-activated protease, the “% of Control (Ca-activated protease activity)” value amounted to 4.6%. For the same molecule, the “% Inhibition of muscle Ca-activated protease” value in data set [4] (19 umoles) was 48%. For the same molecule, the “effectiveness per umole relative to leupeptin in inhibiting Ca-activated protease in skeletal muscle” value in data set [4] (injected into rats) is listed as “about ten times more effective per umole”.
Turning to carnitylleucylargininal dibutylacetal, the “% of Control (Ca-activated protease activity) after hydrolysis” value in the data set with Ca-activated protease (0 time) stood at 17%; in the data set with Ca-activated protease (3 hours), 1.2%; with Ca-activated protease (24 hours), 100%.

Source of the values: patent publication US4866040A, “Aminocarnitine directed pharmaceutical agents” (priority 1987, dated 1989).
